Data on one molecule can be found in patent publication US6297230A, “Cyanoaziridines for treating cancer” (priority 2000, dated 2001).

SMILES strings stand for the structures.

Data set [1] concerns Human 8226 myeloma tumors. In words: Antitumor efficacy in SCID mice bearing human 8226 myeloma tumors (40-fold doxorubicin resistant). Format: in vivo, human tumor xenograft in SCID mice. From the text:
Testing for Antitumor Efficacy in Mice with Severe Combined Immunodeficiency Disease (SCID)
The SCID mouse represents an autosomal recessive mutation in an inbred strain of […] mice which renders the animals profoundly immunodeficient and able to accept tissue xenografts from rats, humans or other strains of mice. (Ware, et al., J Immunol Methods 85:353-361, 1985.) The immunologic defect results from an inability to carry out normal immunoglobulin and T-cell receptor recombination reactions during the development of T- and B-lymphocytes. This renders mice with very low levels of T- and B-cells, and low levels of antibody production which allows foreign (allogeneic or xenogeneic) tissue grafts to grow in vivo. […] (Phillips, et al., Curr Top Microbiol Immunol 152:259-263, 1989.) Compared to athymic nude mice, SCID mice accept more tumor tissue types and breed more efficiently. (Phillips, et al., Curr Top Microbiol Immunol 152:259-263, 1989.) The SCID mice are also more sensitive to ionizing radiation (Budach, et al., Cancer Res 52(22):6292-6296, 1992) due to a defect in DNA double strand break repair. (Chang, et al., Cancer Res 53:1244-1248, 1993.) Because some SCID mice can spontaneously revert to a more normal phenotype, serum immunoglobulin […] (IgG) levels are routinely measured and if elevated (leaky phenotype syndrome), the mouse is excluded from further study.
The SCID mouse colony is maintained in a barrier facility with specially filtered air, autoclaved (sterilized) food and water and protective handling precautions (gloves, mask, gown) to prevent inadvertent infection. For tumor studies, human tumor cells are grown in vitro, harvested, counted and injected subcutaneously into the front flank area. Tumor cell innocula range from 10^6 -2×10^7 cells/mouse. Palpable tumors begin to develop after 1-3 weeks and sizes are determined by caliper measure of the widest perpendicular diameters. These dimensions are converted to mass using the formula:
wherein W=the shorter of the two dimensions and L=the longer diameter value.
Tumor growth rates are plotted as mass (g) per days after inoculation.
Drug treatments are given by intravenous (IV) or intraperitoneal (IP) injection beginning 24 hours after tumor implantation (day 1). […] Drug therapy began 1 day later with AMP-404 dissolved in a water-miscible co-solvent system containing (per mL): benzyl alcohol 30 mg; polysorbate 80 mw, 80 mg; polyethylene glycol 300 mw, 650 mg; and q.s. to 1.0 mL in absolute ethanol. The daily dose was either 50 mg/kg or 100 mg/kg. […]

A short description of data set [2]: Body weight and lethality in SCID mice treated with AMP-404. The class given is in vivo. The procedure:
The SCID mouse colony is maintained in a barrier facility with specially filtered air, autoclaved (sterilized) food and water and protective handling precautions (gloves, mask, gown) to prevent inadvertent infection. For tumor studies, human tumor cells are grown in vitro, harvested, counted and injected subcutaneously into the front flank area. Tumor cell innocula range from 10^6 -2×10^7 cells/mouse. Palpable tumors begin to develop after 1-3 weeks and sizes are determined by caliper measure of the widest perpendicular diameters. These dimensions are converted to mass using the formula: […]
Drug treatments are given by intravenous (IV) or intraperitoneal (IP) injection beginning 24 hours after tumor implantation (day 1). […] Drug therapy began 1 day later with AMP-404 dissolved in a water-miscible co-solvent system containing (per mL): benzyl alcohol 30 mg; polysorbate 80 mw, 80 mg; polyethylene glycol 300 mw, 650 mg; and q.s. to 1.0 mL in absolute ethanol. The daily dose was either 50 mg/kg or 100 mg/kg. Therapy was continued daily for […] and tumors were measured three times per week up to the 7 week ending period (two weeks after stopping drug therapy).

Take `N#CC1CN1C(=O)Nc1ccccc1` (stereo not shown) [AMP 404, 2-Cyanoaziridine-1-(N-phenyl)carboxamide]: the Antitumor effect entry in data set [1] (50 mg/kg daily) is on record as “not active”. Moreover, the “Mean (SD) tumor volume” value in data set [1] (50 mg/kg daily, Week 3) was 104.2 (78.6) mm^3; in data set [1] (50 mg/kg daily, Week 4), 247.9 (225.9) mm^3; in data set [1] (50 mg/kg daily, Week 5), 574.2 (296.2) mm^3; in data set [1] (50 mg/kg daily, Week 6), 1,020 (396.2) mm^3; in data set [1] (50 mg/kg daily, Week 7) it was 1,858.4 (941.4) mm^3; in data set [1] (100 mg/kg daily, Week 3, P-value .005 vs control), 32.9 (17.9) mm^3. For the same molecule, the “Mean (SD) tumor volume” value in data set [1] (100 mg/kg daily, Week 4, P-value .068 vs control) was 104.9 (81.8) mm^3; in data set [1] (100 mg/kg daily, Week 5, P-value .229 vs control), 312.5 (195.5) mm^3; in data set [1] (100 mg/kg daily, Week 6, P-value .100 vs control) it was 357.3 (314.5) mm^3; in data set [1] (100 mg/kg daily, Week 7, P-value 0.19 vs control), 824.5 (793.7) mm^3. Further, in data set [1] (100 mg/kg), the “Mean reduction in tumor volume” value was 50%. Moreover, the “Tumor size at end of 6 week experiment” value in data set [1] (100 mg/kg, control approximately 1,000 mm^3) is given as “approximately 300 mm^3”. Further, the “Onset of developing palpable tumors” value in data set [1] (after inoculation) is 3 weeks. Also, the “Tumor take rate (% of inoculated mice developing palpable tumors)” value in data set [1] (all 3 groups) was 100%. For the same molecule, in data set [1] (multidrug-resistant human myeloma, SCID mice), the “Antitumor activity in vivo” value was “active against multidrug-resistant human myeloma cells in vivo”. For the same molecule, the Weight loss result in data set [2] (50 mg/kg daily) was “no apparent weight loss”. Further, in data set [2] (100 mg/kg daily), the “Mean body weight loss compared to control” value is listed as 15-20%. Also, in data set [2] (mouse, in vivo), the Drug-induced lethality entry is “no drug-induced lethality”.
